The target in this experiment is T1, BRD9 (Homo sapiens, UniProt Q9H8M2).
T1 sequence (Q9H8M2 1-597): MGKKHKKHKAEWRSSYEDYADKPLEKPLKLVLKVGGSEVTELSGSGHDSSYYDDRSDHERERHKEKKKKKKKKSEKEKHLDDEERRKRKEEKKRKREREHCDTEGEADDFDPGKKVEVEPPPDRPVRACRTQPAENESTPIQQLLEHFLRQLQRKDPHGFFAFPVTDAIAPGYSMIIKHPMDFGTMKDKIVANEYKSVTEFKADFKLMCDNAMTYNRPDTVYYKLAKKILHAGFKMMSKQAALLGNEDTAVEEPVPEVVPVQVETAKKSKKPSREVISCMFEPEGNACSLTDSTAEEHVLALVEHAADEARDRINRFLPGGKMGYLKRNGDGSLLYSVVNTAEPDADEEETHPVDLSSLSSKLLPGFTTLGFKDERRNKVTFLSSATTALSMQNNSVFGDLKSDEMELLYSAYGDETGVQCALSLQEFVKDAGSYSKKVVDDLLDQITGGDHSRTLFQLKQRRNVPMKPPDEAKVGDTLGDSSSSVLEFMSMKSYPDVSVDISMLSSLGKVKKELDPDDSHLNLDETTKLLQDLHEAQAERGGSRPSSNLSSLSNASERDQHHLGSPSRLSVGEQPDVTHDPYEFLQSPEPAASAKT
As to the kind of experiment: Degradation of BRD9 (IF), immunofluorescence in MV4-11 cells, 24 hours (Assay Protocol 2). More on the design: A suspension of MV4-11 cells (ATCC CRL-9591) was prepared; host or cells: MV4-11. The class given is cell-based. The conditions noted are these: BRD9 degradation; for DC50: Assay protocol 2, read-out: DC50; for Dmax: MV4-11, Assay protocol 2, read-out: Dmax. The method, then: Assay Protocol 2—Degradation of BRD9 (IF)
A suspension of MV4-11 cells (ATCC CRL-9591) was prepared in phenol red-free assay media (IMDM Thermo Scientific 21056023+10% FBS ATCC 302025) and cells were seeded at 20,000 cells per well (45 μL) in sterile black poly-d-lysine coated 384 well plates (Greiner 781948). Compounds were prepared at 1000× final concentration in DMSO, diluted 1:100 in assay media, and 5 μL compound was added to each well of the cell plate. Cells were incubated for 24 hours at 37° C. with 5% CO2. All the following incubations for immunofluorescence staining were at room temperature. 15 μL of 16% PFA was added to each well (3.7% final concentration) and the cells were fixed for 15 min then washed twice with DPBS. Cells were permeabilised with 0.1% Triton X-100 for 10 min, Triton X-100 was removed, then blocked with 1% BSA in DPBS for 1 hour. Cells were stained with 25 μL anti-BRD9 E4Q3F antibody (CST 48306) diluted 1:25600 in 1% BSA in DPBS for 2-3 hours. Wels were washed twice with DPBS then incubated with 25 μL of 1% BSA containing a 1:1000 dilution of Anti-rabbit Alexa Fluor™ 647 secondary antibody (Thero Scientific A21244) and 1 μg/mL Hoechst nuclear counter stain (Abcam ab228551) for 1 hour. Wells were washed twice with DPBS prior to imaging on a Perkin Elmer Operetta CLS with 10× air lens. Images were processed using Harmony High-Content Imaging and Analysis Software (Perkin Elmer) and the mean contrast ratio of Alexa Fluor™ 647 in central nuclei was used to quantify BRD9 protein levels. Data was further analysed using Dotmatics software and % BRD9 remaining was calculated by normalisation to average data from high and low control wells (cells treated with DMSO or 100 nM CFT-8634 respectively).

Molecules are shown by their SMILES.

With `CC[C@@H]1CN(Cc2c(OC)cc(-c3cn(C)c(=O)c(C)c3C)cc2OC)CCN1Cc1cccc2c1CCN(C(=O)/C(C#N)=C/C(C)(C)C)C2C` (mixture of isomers) [Compound B139, (E/Z)-2-(5-(((R)-4-(2,6-dimethoxy-4-(1,4,5-trimethyl-6-oxo-1,6-dihydropyridin-3-yl)benzyl)-2-ethylpiperazin-1-yl)methyl)-1-methyl-1,2,3,4-tetrahydroisoquinoline-2-carbonyl)-4,4-dimethylpent-2-enenitrile], the 50% degradation concentration (DC50) was 0.01 to 0.025 µM and the Dmax is 70 to 75%.

`COc1cc(-c2cn(C)c(=O)c(C)c2C)cc(OC)c1CN1CCN(Cc2ccc3c(c2)[C@H](C(C)C)N(C(=O)/C(C#N)=C/C(C)(C)CF)CC3)C2(CC2)C1` (single isomer, unassigned) [Compound C96, (E/Z)-2-(7-((7-(2,6-dimethoxy-4-(1,4,5-trimethyl-6-oxo-1,6-dihydropyridin-3-yl)benzyl)-4,7-diazaspiro[2.5]octan-4-yl)methyl)-1-isopropyl-1,2,3,4-tetrahydroisoquinoline-2-carbonyl)-5-fluoro 4,4-dimethylpent-2-enenitrile]: the DC50 was 0.00125 to 0.01 µM and the Dmax is more than 75%.

Consider `COc1cc(-c2cn(C)c(=O)c(C)c2C)cc(OC)c1CN1CCN(Cc2cccc3c2CCN(C(=O)/C(C#N)=C/C(C)(C)F)[C@@H]3C)C2(CC2)C1` (single isomer, unassigned) [Compound C20, (E/Z)-2-(5-((7-(2,6-dimethoxy-4-(1,4,5-trimethyl-6-oxo-1,6-dihydropyridin-3-yl)benzyl)-4,7-diazaspiro[2.5]octan-4-yl)methyl)-1-methyl-1,2,3,4-tetrahydroisoquinoline-2-carbonyl)-4-fluoro-4-methylpent-2-enenitrile], for which the DC50 was less than 0.00125 µM and the Dmax is more than 75%.

Turning to `COc1cc(-c2cn(C)c(=O)c(C)c2C)cc(F)c1CN1CCN(Cc2ccc3c(c2)[C@@H](C)N(C(=O)/C(C#N)=C/C(C)(C)C)CC3)C2(CC2)C1` (single isomer, unassigned) [Compound C5, (E/Z)-2-(7-((7-(2-fluoro-6-mehtoxy-4-(1,4,5-trimethyl-6-oxo-1,6-dihydropyridin-3-yl)benzyl)-4,7-diazaspiro[2.5]octan-4-yl)methyl)-1-methyl-1,2,3,4-tetrahydroisoquinoline-2-carbonyl)-4,4-dimethylpent-2-enenitrile], the DC50 lay in the range of 0.01 to 0.025 µM and the Dmax was more than 75%.

For the compound `COc1cc(-c2cn(C)c(=O)c(C)c2C)cc(OC)c1CN1CCC(COc2cccc3c2CCN(C(=O)/C(C#N)=C/C(C)(C)C)C3C)CC1` (mixture of isomers) [Compound B86, (E/Z)-2-(5-((1-(2,6-dimethoxy-4-(1,4,5-trimethyl-6-oxo-1,6-dihydropyridin-3-yl)benzyl)piperidin-4-yl)methoxy)-1-methyl-1,2,3,4-tetrahydroisoquinoline-2-carbonyl)-4,4-dimethylpent-2-enenitrile], the DC50 fell in the range of 0.01 to 0.025 µM and the Dmax is 40 to 70%.

For `COc1cc(-c2cn(C)c(=O)c(C)c2C)cc(OC)c1CN1CCN(Cc2cccc3c2CCN(C(=O)/C(C#N)=C/C(C)(C)C)[C@@H]3C(C)C)C2(CC2)C1` (single isomer, unassigned) [Compound C79, (E/Z)-2-(5-((7-(2,6-dimethoxy-4-(1,4,5-trimethyl-6-oxo-1,6-dihydropyridin-3-yl)benzyl)-4,7-diazaspiro[2.5]octan-4-yl)methyl)-1-isopropyl-1,2,3,4-tetrahydroisoquinoline-2-carbonyl)-4,4-dimethylpent-2-enenitrile], the DC50 was 0.025 to 1 µM and the Dmax lay within 40 to 70%.

Take `COc1cc(-c2cn(C)c(=O)c(C)c2C)cc(OC)c1CN1CCN(Cc2cccc3c2CCN(C(=O)/C(C#N)=C/C(C)(C)C)C3C)CC1=O` (mixture of isomers) [Compound B142]: the DC50 lay in the range of 0.00125 to 0.01 µM and the Dmax is more than 75%.

As to `COc1cc(-c2cn(C)c(=O)c(C)c2C)cc(OC)c1CN1CCN(Cc2cccc3c2CCN(C(=O)/C(C#N)=C/C2(C)CCCCC2)C3C)C2(CC2)C1` (mixture of isomers) [Compound B143, (E/Z)-2-(5-((7-(2,6-dimethoxy-4-(1,4,5-trimethyl-6-oxo-1,6-dihydropyridin-3-yl)benzyl)-4,7-diazaspiro[2.5]octan-4-yl)methyl)-1-methyl-1,2,3,4-tetrahydroisoquinoline-2-carbonyl)-3-(1-methylcyclohexyl)acrylonitrile], the DC50 lay within 0.01 to 0.025 µM and the Dmax is 70 to 75%.

As to `COc1cc(-c2cn(C)c(=O)c(C)c2C)cc(OC)c1CN1CCN(Cc2ccc3c(c2)C(C)N(C(=O)/C(C#N)=C/C(C)(C)CCl)CC3)C2(CC2)C1` (single isomer, unassigned) [Compound B203, (E/Z)-5-chloro-2-(7-((7-(2,6-dimethoxy-4-(1,4,5-trimethyl-6-oxo-1,6-dihydropyridin-3-yl)benzyl)-4,7-diazaspiro[2.5]octan-4-yl)methyl)-1-methyl-1,2,3,4-tetrahydroisoquinoline-2-carbonyl)-4,4-dimethylpent-2-enenitrile], the DC50 lay within 0.00125 to 0.01 µM and the Dmax is more than 75%.

Regarding `CC[C@H]1c2cccc(CN3CCN(Cc4c(OC)cc(-c5cn(C)c(=O)c(C)c5C)cc4OC)CC34CC4)c2CCN1C(=O)/C(C#N)=C/C(C)(C)CF` (single isomer, unassigned) [Compound C92, (E/Z)-2-(5-((7-(2,6-dimethoxy-4-(1,4,5-trimethyl-6-oxo-1,6-dihydropyridin-3-yl)benzyl)-4,7-diazaspiro[2.5]octan-4-yl)methyl)-1-ethyl-1,2,3,4-tetrahydroisoquinoline-2-carbonyl)-5-fluoro-4,4-dimethylpent-2-enenitrile], the Dmax lay in the range of 40 to 70%.

For `COc1cc(-c2cn(C)c(=O)c(C)c2C)cc(OC)c1CN1CCN(Cc2cccc3c2CCN(C(=O)/C(C#N)=C/C2(C)CCC2)C3C)CC1` (mixture of isomers) [Compound B76, (E/Z)-2-(5-((4-(2,6-dimethoxy-4-(1,4,5-trimethyl-6-oxo-1,6-dihydropyridin-3-yl)benzyl)piperazin-1-yl)methyl)-1-methyl-1,2,3,4-tetrahydroisoquinoline-2-carbonyl)-3-(1-methylcyclobutyl)acrylonitrile], the DC50 lay within 0.00125 to 0.01 µM and the Dmax is 40 to 70%.

For `COc1cc(-c2cn(C)c(=O)c(C)c2C)cc(OC)c1CN1CCN(Cc2cccc3c2CCN(C(=O)/C(C#N)=C/C(C)(C)C(F)(F)F)C3C)C2(CC2)C1` (mixture of isomers) [Compound B152, (E/Z)-2-(5-((7-(2,6-dimethoxy-4-(1,4,5-trimethyl-6-oxo-1,6-dihydropyridin-3-yl)benzyl)-4,7-diazaspiro[2.5]octan-4-yl)methyl)-1-methyl-1,2,3,4-tetrahydroisoquinoline-2-carbonyl)-5,5,5-trifluoro-4,4-dimethylpent-2-enenitrile], the DC50 was in the range of 0.00125 to 0.01 µM and the Dmax was more than 75%.

For `COc1cc(-c2cn(C)c(=O)c(C)c2C)cc(OC)c1CN1CCN(Cc2cccc3c2CCN(C(=O)/C(C#N)=C/C(C)(C)C)C3C(C)C)CC12CC2` (mixture of isomers) [Compound C10, (E/Z)-2-(5-((4-(2,6-dimethoxy-4-(1,4,5-trimethyl-6-oxo-1,6-dihydropyridin-3-yl)benzyl)-4,7-diazspiro[2.5-]octan-7-yl)methyl)-1-isopropyl-1,2,3,4-tetrahydroisoquinoline-2-carbonyl)-4,4-dimethylpent-2-enenitrile], the DC50 lay within 0.00125 to 0.01 µM and the Dmax is more than 75%.

In the case of `COc1cc(-c2cn(C)c(=O)c(C)c2C)cc(OC)c1CN1CCN(Cc2cccc3c2CCN(C(=O)/C(C#N)=C/C(C)(C)F)[C@H]3C)C2(CC2)C1` (mixture of isomers) [Compound C30], the DC50 fell in the range of 0.025 to 1 µM and the Dmax was in the range of 40 to 70%.

What is called DC50 is the concentration at which degradation of the target reaches its halfway point. One may read the Dmax as the largest share of the target that was removed.
